Literature values as cited in patent publication US20230329971A1, “MEDICINAL PRODUCT COMPRISING A FLEXIBLE PLASTIC BAG AND AN AQUEOUS, READY-TO-USE SOLUTION OF MIDAZOLAM” (B. Braun Melsungen AG, priority 2020, published 2023).

Conditions: in aqueous 5% dextrose solution or aqueous 0.9% sodium chloride solution

In the case of `Cc1ncc2n1-c1ccc(Cl)cc1C(c1ccccc1F)=NC2.Cl` [midazolam hydrochloride, 8-chloro-6-(2-fluorophenyl)-1-methyl-4H-imidazo [1,5-a] [1, 4] benzodiazepine hydrochloride], the stable over is given as 30 days.
